Laboratory results reported in PubChem BioAssay (NCI).
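Abbreviation: GI50, concentration required for 50% inhibition of growth. At the TGI there is no net growth.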

What was measured:
Experiment in all cases: growth of human tumour cells (NCI), 384-well format
786-0 renal = test system: 786-0 renal
A498 renal = test system: A498 renal
A549 NSCLC = test system: A549 NSCLC
ACHN renal = test system: ACHN renal
BT-549 breast = test system: BT-549 breast
CAKI-1 renal = test system: CAKI-1 renal
CCRF-CEM leukemia = test system: CCRF-CEM leukemia
COLO 205 colon = test system: COLO 205 colon
DU-145 prostate = test system: DU-145 prostate
EKVX NSCLC = test system: EKVX NSCLC
HCT-116 colon = test system: HCT-116 colon
HCT-15 colon = test system: HCT-15 colon
HL-60(TB) leukemia = test system: HL-60(TB) leukemia
HOP-62 NSCLC = test system: HOP-62 NSCLC
HOP-92 NSCLC = test system: HOP-92 NSCLC
HS 578T breast = test system: HS 578T breast
HT29 colon = test system: HT29 colon
IGROV1 ovarian = test system: IGROV1 ovarian
KM12 colon = test system: KM12 colon
LOX IMVI melanoma = test system: LOX IMVI melanoma
M14 melanoma = test system: M14 melanoma
MALME-3M melanoma = test system: MALME-3M melanoma
MCF7 breast = test system: MCF7 breast
MDA-MB-231 breast = test system: MDA-MB-231 breast
MDA-MB-468 breast = test system: MDA-MB-468 breast
NCI-H226 lung = test system: NCI-H226 lung
NCI-H23 lung = test system: NCI-H23 lung
NCI-H460 NSCLC = test system: NCI-H460 NSCLC
NCI/ADR-RES ovarian = test system: NCI/ADR-RES ovarian
OVCAR-3 ovarian = test system: OVCAR-3 ovarian
OVCAR-4 ovarian = test system: OVCAR-4 ovarian
OVCAR-5 ovarian = test system: OVCAR-5 ovarian
OVCAR-8 ovarian = test system: OVCAR-8 ovarian
PC-3 prostate = test system: PC-3 prostate
RXF 393 renal = test system: RXF 393 renal
SF-268 CNS = test system: SF-268 CNS
SF-295 CNS = test system: SF-295 CNS
SF-539 CNS = test system: SF-539 CNS
SK-MEL-2 melanoma = test system: SK-MEL-2 melanoma
SK-MEL-28 melanoma = test system: SK-MEL-28 melanoma
SK-MEL-5 melanoma = test system: SK-MEL-5 melanoma
SK-OV-3 ovarian = test system: SK-OV-3 ovarian
SN12C renal = test system: SN12C renal
SNB-75 CNS = test system: SNB-75 CNS
SR leukemia = test system: SR leukemia
TK-10 renal = test system: TK-10 renal
UACC-257 melanoma = test system: UACC-257 melanoma

With O=C(c1cc(Cc2n[nH]c(=O)c3ccccc23)ccc1F)N1CCN(C(=O)C2CC2)CC1 the GI50 (786-0 renal) was > 100 µM, the TGI (786-0 renal) was > 100 µM and the GI50 (A498 renal) was > 100 µM. For the same compound, the TGI (A498 renal) was > 100 µM, the GI50 (A549 NSCLC) was 44.9 µM and the TGI (A549 NSCLC) was > 100 µM. For the same compound, the GI50 (ACHN renal) was > 81.8 µM, the TGI (ACHN renal) was > 100 µM and the GI50 (BT-549 breast) was 17.2 µM. For the same compound, the TGI (BT-549 breast) was > 75.8 µM, the GI50 (CAKI-1 renal) was 52.4 µM and the TGI (CAKI-1 renal) was > 100 µM. For the same compound, the GI50 (CCRF-CEM leukemia) was 6.5 µM, the TGI (CCRF-CEM leukemia) was > 100 µM and the GI50 (COLO 205 colon) was > 77 µM. The TGI (COLO 205 colon) was > 100 µM, the GI50 (DU-145 prostate) was 53.5 µM and the TGI (DU-145 prostate) was > 100 µM. The GI50 (EKVX NSCLC) was 97.7 µM, the TGI (EKVX NSCLC) was > 100 µM and the GI50 (HCT-116 colon) was 8.27 µM. The TGI (HCT-116 colon) was > 100 µM, the GI50 (HCT-15 colon) was > 100 µM and the TGI (HCT-15 colon) was > 100 µM. The GI50 (HL-60(TB) leukemia) was 21.2 µM, the TGI (HL-60(TB) leukemia) was > 100 µM and the GI50 (HOP-62 NSCLC) was 4.92 µM. The TGI (HOP-62 NSCLC) was > 75.5 µM, the GI50 (HOP-92 NSCLC) was 57.3 µM and the TGI (HOP-92 NSCLC) was > 100 µM. For the same compound, the GI50 (HS 578T breast) was 25.9 µM, the TGI (HS 578T breast) was > 100 µM and the GI50 (HT29 colon) was > 100 µM. The TGI (HT29 colon) was > 100 µM, the GI50 (IGROV1 ovarian) was > 62.7 µM and the TGI (IGROV1 ovarian) was > 100 µM. The GI50 (KM12 colon) was > 100 µM, the TGI (KM12 colon) was > 100 µM and the GI50 (LOX IMVI melanoma) was 23 µM. For the same compound, the TGI (LOX IMVI melanoma) was > 100 µM, the GI50 (M14 melanoma) was > 91.5 µM and the TGI (M14 melanoma) was > 100 µM. For the same compound, the GI50 (MALME-3M melanoma) was > 100 µM, the TGI (MALME-3M melanoma) was > 100 µM and the GI50 (MCF7 breast) was 28.6 µM. For the same compound, the TGI (MCF7 breast) was > 100 µM, the GI50 (MDA-MB-231 breast) was > 61.1 µM and the TGI (MDA-MB-231 breast) was > 100 µM. For the same compound, the GI50 (MDA-MB-468 breast) was 3.76 µM, the TGI (MDA-MB-468 breast) was 16.7 µM and the GI50 (NCI-H226 lung) was 34.5 µM. For the same compound, the TGI (NCI-H226 lung) was > 100 µM, the GI50 (NCI-H23 lung) was 16.3 µM and the TGI (NCI-H23 lung) was > 100 µM. For the same compound, the GI50 (NCI-H460 NSCLC) was 5.78 µM, the TGI (NCI-H460 NSCLC) was > 100 µM and the GI50 (NCI/ADR-RES ovarian) was > 100 µM. The TGI (NCI/ADR-RES ovarian) was > 100 µM, the GI50 (OVCAR-3 ovarian) was 60.5 µM and the TGI (OVCAR-3 ovarian) was > 100 µM. For the same compound, the GI50 (OVCAR-4 ovarian) was > 80.3 µM, the TGI (OVCAR-4 ovarian) was > 100 µM and the GI50 (OVCAR-5 ovarian) was > 100 µM. The TGI (OVCAR-5 ovarian) was > 100 µM, the GI50 (OVCAR-8 ovarian) was 22 µM and the TGI (OVCAR-8 ovarian) was > 100 µM. For the same compound, the GI50 (PC-3 prostate) was > 100 µM, the TGI (PC-3 prostate) was > 100 µM and the GI50 (RXF 393 renal) was > 37.6 µM. The TGI (RXF 393 renal) was > 79.6 µM, the GI50 (SF-268 CNS) was 24.9 µM and the TGI (SF-268 CNS) was > 90.3 µM. The GI50 (SF-295 CNS) was 4.68 µM, the TGI (SF-295 CNS) was > 37.3 µM and the GI50 (SF-539 CNS) was 11.8 µM. For the same compound, the TGI (SF-539 CNS) was > 100 µM, the GI50 (SK-MEL-2 melanoma) was > 100 µM and the TGI (SK-MEL-2 melanoma) was > 100 µM. The GI50 (SK-MEL-28 melanoma) was > 100 µM, the TGI (SK-MEL-28 melanoma) was > 100 µM and the GI50 (SK-MEL-5 melanoma) was 35 µM. For the same compound, the TGI (SK-MEL-5 melanoma) was > 73.1 µM, the GI50 (SK-OV-3 ovarian) was > 55.5 µM and the TGI (SK-OV-3 ovarian) was > 100 µM. The GI50 (SN12C renal) was > 100 µM, the TGI (SN12C renal) was > 100 µM and the GI50 (SNB-75 CNS) was 22.5 µM. The TGI (SNB-75 CNS) was > 95.9 µM, the GI50 (SR leukemia) was 1.37 µM and the TGI (SR leukemia) was 3.38 µM. For the same compound, the GI50 (TK-10 renal) was > 100 µM, the TGI (TK-10 renal) was > 100 µM and the GI50 (UACC-257 melanoma) was > 100 µM. The TGI (UACC-257 melanoma) was > 100 µM.
